Data on one molecule can be found in US20060166941A1, “Treatment and/or prevention of non-viral epithelial damage” (Epistem Limited, priority 2003, published 2006).

Each structure is given as a SMILES string. Several values for one entry are separate records, joined by “and”; a condition that tells them apart may be missing. Equal entries are not always repeated. Structures can show the parent of a compound that is named as a salt.

The test system of data set [1] is clonogenic stem cells of the digestive epithelium. The data set is described as follows: In vivo protection of intestinal epithelium clonogenic stem cells, radiation damage, independent experiment 1 (regenerating crypts). More on the design: species or system mice. To be noted: for corrected crypts/circumference / no. crypts/circumference: day 4; for Protection Factor: 13Gy, corrected crypts treated / vehicle. The source says:
In Vivo Protection of Intestinal Epithelium Clonogenic Stem Cells—Radiation Damage Independent Experiment 1.
The ability of foscarnet (phosphonoformic acid trisodium salt hexahydrate) to prevent radiological damage to clonogenic stem cells of the digestive epithelium was illustrated by the following experiment.
The model of radiological insult used was treatment with 13 Gy X-ray whole body radiation at a dose rate of 0.7 Gy/minute. Such radiation treatment provides a model of radiotherapy administered to patients undergoing treatment for cancer.
Four experimental groups, each of six mice, were established as set out below:
Group 1: Received intra-peritoneal injection, containing 50 mg foscarnet/kilogram bodyweight, in sterile water, one hour prior to radiation treatment. Received one further identical injection on each of the three days following radiation treatment.
Group 2: Received intra-peritoneal injection, containing 100 mg foscarnet/kilogram bodyweight, in sterile water, one hour prior to radiation treatment. Received one further identical injection on each of the three days following radiation treatment.
Group 3: Vehicle control. Received intra-peritoneal injection, of sterile water, one hour prior to radiation treatment. Received one further identical injection on each of the three days following radiation treatment.
Group 4: Untreated controls. Received neither injections nor exposure to radiation.
On the fourth day after treatment the animals of each group were killed, and intestinal tissue harvested for histological analysis. Tissue sections were stained with haemotoxylin and eosin, and were analysed for the presence of regenerating intestinal crypts. Regenerating intestinal crypts are derived from one or more surviving clonogenic stem cells, whereas sterilised crypts (containing no surviving stem cells) disappear within two days of irradiation. The number of regenerating crypts per intestinal circumference was counted, and the mean crypt width measured. Scores for each animal were then corrected to account for the probability of preferentially scoring larger crypts according to the following equation: [formula]
For each treatment a Protection Factor was calculated using the following equation: corrected crypts/circumference treated corrected crypts/circumference untreated (vehicle)

The subject of the next data set is intestinal crypt cells. The data set is described as follows: Epithelial cell kinetic evaluation following oral administration (BrdUrd labelling, tolerability). In kind it is in vivo. To be noted: 500 mg/kg oral gavage once a day for 4 days. How it is done: Epithelial Cell Kinetic Evaluation Following Oral Administration of Foscarnet Phosphonoformic Acid Trisodium Salt Hexahydrate).
Intestinal epithelial cell stimulation following an oral application of foscarnet (phosphonoformic acid trisodium salt hexahydrate) was illustrated by the following experiment.
Two experimental groups, each of three mice, were established as set out below:
Group 1: Received oral gavage, containing 500 mg foscarnet/kilogram bodyweight, in sterile water, once a day for 4 days. On the fifth day the animals received a pulse of 10 mg Bromodeoxyuridine (BrdUrd) and 40 minutes laster were killed and small intestine and kidneys harvested for analysis.
Group 2: Received oral gavage of sterile water, once a day for 4 days On the fifth day the animals received a pulse of 10 mg Bromodeoxyuridine and 40 minutes laster were killed and small intestine and kidneys harvested for analysis.
Slides were immunohistochemically labelled for BrdUrd and counterstained with thionin to assess intestinal epithelial cell kinetic changes with oral administration of foscarnet. To assess epithelial cell kinetic changes, 50 small intestinal crypts per animal were quantified on a cell positional basis for the number of positively labelled S-phase cells at each cell position in the crypt. Quantification starts at the bottom of the crypt (cell position 1) and continues up one side of the crypt assessing each cell in turn to the crypt villus junction.

The next data set deals with oral mucosa. As to the kind of experiment: In vivo protection of oral mucosa following radiation damage (20 Gy head only), ventral tongue cellularity. More on the design: species or system mice. To be noted: 50 mg/kg 1 hr prior to 20 Gy (head only) and once a day until sampling; versus vehicle. From the text:
In Vivo Protection of Oral Mucosa Following Radiation Damage. The ability of foscarnet (phosphonoformic acid trisodium salt hexahydrate) to prevent radiological damage to oral mucosa was illustrated by the following experiment. The model of cytotoxic insult used was treatment with 20 Gy X-ray radiation (head only) at a dose rate of 0.7 Gy/minute. Such radiation treatment provides a model of radiotherapy administered to patients undergoing treatment for cancer Experimental groups, each of four mice, were established as set out below: Group 1: Received intra-peritoneal injection, containing 50 mg foscarnet/kilogram bodyweight, in sterile water, one hour prior to radiation. Received one further identical injection on each of the two days following radiation. On the third day after radiation the animals were killed, and oral tissue harvested for analysis. […] Using a Zeiss AxioHOME the number of bromodeoxyuridine labelled and unlabelled cells were assessed in both the basal and suprabasal layers of the ventral surface of the tongue. The area from the basal layer to the stratum corneum stratum granulosum interface was measured along with the length of the basal layer. […] From these measurements the damage that the radiation had caused to the tongue could be assessed as overall cellularity of the tongue or the total number of cells/unit area (mm^2). […]

Where [2] appears, read: 13Gy plus 50 mg foscarnet -1 hr, 1, 2, 3 day, group Average.
Setting [3] is: 13Gy plus 50 mg foscarnet -1 hr, 1, 2, 3 day, individual mice.
Setting [4] is: 13Gy plus 100 mg foscarnet -1 hr, 1, 2, 3 day, group Average.
The mark [5] stands for this setting: 13Gy plus 100 mg foscarnet -1 hr, 1, 2, 3 day, individual mice.

Turning to `O=C(O)P(=O)(O)O` [foscarnet, phosphonoformic acid trisodium salt hexahydrate], in data set [1] (setting [2]), the corrected crypts/circumference is given as 3.8 and the no. crypts/circumference is reported as 6.8. Further, in data set [1] (setting [3]), the corrected crypts/circumference was 2.6 and 6.1 and 3.6 and 4.3 and 2.5; the no. crypts/circumference was 4.8 and 10.7 and 6.6 and 7.2 and 4.5. Besides, in data set [1] (setting [4]), the corrected crypts/circumference turned out to be 3.2 and the no. crypts/circumference turned out to be 5.6. In data set [1] (setting [5]), the corrected crypts/circumference is 3.0 and 3.6 and 2.5 and 2.1 and 4.8; the no. crypts/circumference is 5.5 and 6.4 and 4.3 and 3.8 and 8.0. In addition, in data set [1] (50 mg foscarnet -1 hr, 1, 2, 3 day), the “Protection Factor” value is reported as 1.52. Besides, in data set [1] (13 Gy, 50 mg/kg foscarnet), the “more crypts compared to mice treated with vehicle alone” value was roughly 50% and the “more small intestinal clonogenic stem cells survived” value was “at least 50%”. Moreover, the “Protection Factor” value in data set [1] (100 mg foscarnet -1 hr, 1, 2, 3 day) came out at 1.28. Besides, the “numbers of intestinal crypts after exposure to radiation” value in data set [1] (Groups 1 and 2 (50 mg foscarnet and 100 mg foscarnet), 13 Gy) is reported as “increased numbers of intestinal crypts”. Also, in the data set on intestinal crypt cells, the “deaths or signs of illness” value is reported as “no deaths or signs of illness” and the “tolerability of relatively high oral doses” value is given as “tolerated without notable toxicity”. In addition, the “kidney damage judged by histological sectioning” value with intestinal crypt cells (end of treatment period) is on record as “neither of the groups showed overt signs of kidney damage”. In addition, the “BrdUrd labelling index in intestinal crypt cells (FIG. 5)” value with intestinal crypt cells (versus vehicle control) is recorded as “stimulating effect on intestinal crypt cells”. Besides, in the data set on oral mucosa, the “average number of cells/unit area, ventral tongue epithelium (FIG. 7)” value is given as “increased” and the “overall cellularity of the ventral tongue over time (FIG. 6)” value was “increased”.
